# Assay results taken from patent publication US10294221B2, “1, 3, 4-thiadiazole compounds and their use in treating cancer” (AstraZeneca AB, priority 2014, dated 2019).
# Experiments:
# [1] = test system: human NSCLC NCI-H1703 cells xenograft; assay: Mouse Xenograft Model, combination therapy study (NCI-H1703); type: in vivo; settings: Male Scid mice
# Experimental: Male Scid mice were transplanted s.c. with human NSCLC NCI-H1703 cells (ATCC-CRL-5889) to determine the in-vivo anti-tumour activity of GLS inhibitors. 1×10^7 cells in 50% matrigel (BD Bioscience) were injected s.c. on the left flank of the animals.
# (§1) Animals were randomised into groups of 10-12 when tumours reached a volume of ˜200-300 mm^3 and treatment commenced. […] Tumours were measured twice weekly by calliper and volume of tumours calculated using elliptical formula (π/6×width×width×length). Statistical significance was evaluated using a one tailed, t-test. Taxotere® (Sanofi) was formulated in a physiological saline. Example 2 was formulated in a 1% Polysorbate 80 and pH adjusted with 1M HCL to a final pH concentration of pH3.5. Data is presented as mean tumour volume with calculated mean standard error bars.
# [2] = test system: human NSCLC NCI-H3122 cells xenograft; assay: Mouse Xenograft Model, monotherapy (NCI-H3122); type: in vivo; settings: Female Harlan Nude mice, 50 mg/kg once daily peroral for 17 days, monotherapy (FIG. 2)
# Experimental: as §1, with “Female Harlan Nude mice were transplanted s.c. with human NSCLC NCI-H3122 cells to determine the in-vivo anti-tumour activity of GLS inhibitors. 5×10^6 cells in 50% matrigel (BD Bioscience) were injected s.c. on the left flank of the animals. Animals” for “Animals”, “10-15” for “10-12”, “t-test.” for “t-test. Taxotere® (Sanofi) was formulated in a physiological saline.”
structure (smiles),measurement,setting,value
"CO[C@H](C(=O)Nc1nnc(N[C@@H]2CCN(c3cccnn3)C2)s1)c1ccccc1 [Example 2(a), (2S)-2-Methoxy-2-phenyl-N-[5-[[(3R)-1-pyridazin-3-ylpyrrolidin-3-yl]amino]-1,3,4-thiadiazol-2-yl]acetamide]","Tumour growth (mean tumour volume), NCI-H1703 xenograft, combination with Taxotere",[1]; 100 mg/kg once daily peroral for 16 days in combination with once weekly intra-venous Taxotere (FIG. 3),slight regression compared to Taxotere® monotherapy treatment
same,"Tumour growth (mean tumour volume), NCI-H1703 xenograft, monotherapy","[1]; 100 mg/kg once daily peroral for 16 days, monotherapy (FIG. 3)",inhibition of growth in-vivo
same,"Tumour growth (mean tumour volume), NCI-H3122 xenograft",[2],inhibition of growth in-vivo
